Earlier results, collected in patent publication US8927021B2, “Granulating process and thus prepared granulate” (Egis Gyogyszergyar Nyilvanosan Muekoedoe Reszventarsasag, priority 2009, dated 2015).

Compound: O=C1[C@H](CC[C@H](O)c2ccc(F)cc2)[C@@H](c2ccc(O)cc2)N1c1ccc(F)cc1 [Ezetimibe, (3R,4S)-1-(4-Fluorophenyl)-3-[(3S)-3-(4-fluorophenyl)-3-hydroxypropyl]-4-(4-hydroxyphenyl)-2-azetidinone]
- solubility in digestive juice (digestive juice): insoluble
- solubility in organic solvents (organic solvents): soluble
- solubility in water (water): insoluble
